Data reported in patent publication US20250049926A1, “PHARMACEUTICAL COMPOSITIONS COMPRISING MODIFIED BETACYCLODEXTRINS” (priority 2021, published 2025).

What was measured:
[1] = Solubility measurement of saturated solutions by HPLC at room temperature (0 h and 24 h); assay type: physicochemical; conditions: for solubility at 24 h / solubility at 0 h: thermodynamic from solid
Protocol: The vial contents are prepared starting with 2.5 mg of the compound of formula (I). The primary excipient is added followed by any further excipient and then the buffered water to a total volume of 500 μL. All components are mixed in a vortex mixer for ca. 5 minutes. If everything is dissolved an additional 2.5 mg of the compound of formula (I) is added and vortexed again for ca. 5 minutes. This is repeated until a saturated solution (suspension) is obtained.
The solubility in vial 1 is measured immediately as described below.
To measure solubility 400 μl of the suspension are taken and placed in a centrifugation device above a 0.2 μm filter. Centrifugation is performed at 14,000 rpm for 10 minutes and if necessary repeated for additional 10 minutes. The filter is removed from the vial and 100 μL is taken and diluted with 400 μL high-performance liquid chromatography (HPLC) diluent solution (see below) or diluted with 900 μL HPLC diluent solution in the event 5 mg or more of the compound of formula (I) was used. The pH of the solution is measured. A further 100 μL of the vial solution is taken and diluted with 400 μL of HPLC diluent solution or diluted with 900 μL HPLC diluent solution in the event 5 mg or more of the compound of formula (I) was used. The assay of the solution versus control stock solution is measured by HPLC and the solubility is calculated as described below. The HPLC diluent solution is 0.1% trifluoroacetic acid (TFA) in acetonitrile (ACN) and water (1:1 v/v).
All solubility tests are performed at room temperature.
The HPLC method for assessing solubility is performed as follows:
The solubility of the compound of formula (I) is calculated according to the following formula:
[formula] • Solubility=solubility of compound of formula (I) (mg/mL) • A=peak area of the compound of the sample tested • a=value of constant “a” in Linear regression equation y=ax+b • b=value of constant “b” in Linear regression equation y=ax+b • n=dilution time • Formulations for stability assessment are prepared as follows: […]

[2] = Solubility in water as a function of pH; assay type: physicochemical; conditions: aqueous buffer, pH≥4.5 (practically insoluble)
Protocol: The compound of formula (I) as a free base compound has a quite strong lipophilic behavior (Log P 4.13). […] Taking into account these characteristics, and based on pH requirements for intravenous (IV) solutions which is generally set ≥4.0, solubility studies were carried out to identify solubilizers able to substantially increase the aqueous solubility of the compound of formula (I).

[3] = tested on: mouse tumor models; test: Single agent administration in mouse tumor models; assay type: in vivo
From the text: However the compound of formula (I) has low aqueous solubility, leading to the possibility of limited exposure in humans.

[4] = buffered water with excipients, pH 7, aqueous with cosolvent or surfactant or cyclodextrin, CBS 30 mM pH 7.0, NaCl 3 mg/mL, SBE-beta-CD 40 mg/mL, pH exp 7.0

**Q.** For `COc1cc(N2CCNCC2)ccc1Nc1ncc2c(n1)-n1ccc(C(=O)Nc3c(C)cccc3C)c1CC2` [compound of formula (I)], which solubility at 24 h ([1]; buffered water with excipients, pH 4, aqueous with cosolvent or surfactant or cyclodextrin, CBS 30 mM pH 4.0, NaCl 6 mg/mL, SBE-beta-CD 40 mg/mL + Propylene glycol 10 mg/mL, pH exp 4.2) is on record?
**A.** 3650 µg/mL

**Q.** And the solubility at 0 h ([1]; buffered water with excipients, pH 4, aqueous with cosolvent or surfactant or cyclodextrin, CBS 30 mM pH 4.0, NaCl 6 mg/mL, SBE-beta-CD 40 mg/mL + Propylene glycol 20 mg/mL, pH exp 4.1)?
**A.** 2310 µg/mL

**Q.** And the solubility at 24 h ([1]; buffered water with excipients, pH 4, aqueous with cosolvent or surfactant or cyclodextrin, CBS 30 mM pH 4.0, NaCl 6 mg/mL, SBE-beta-CD 40 mg/mL + Propylene glycol 20 mg/mL, pH exp 4.2)?
**A.** 3440 µg/mL

**Q.** And the solubility at 0 h ([1]; buffered water with excipients, pH 4, aqueous with cosolvent or surfactant or cyclodextrin, CBS 30 mM pH 4.0, NaCl 6 mg/mL, SBE-beta-CD 40 mg/mL + Propylene glycol 30 mg/mL, pH exp 4.1)?
**A.** 2150 µg/mL

**Q.** And the solubility at 24 h ([1]; buffered water with excipients, pH 4, aqueous with cosolvent or surfactant or cyclodextrin, CBS 30 mM pH 4.0, NaCl 6 mg/mL, SBE-beta-CD 40 mg/mL + Propylene glycol 30 mg/mL, pH exp 4.2)?
**A.** 3350 µg/mL

**Q.** And the solubility at 0 h ([1]; buffered water with excipients, pH 4, aqueous with cosolvent or surfactant or cyclodextrin, CBS 30 mM pH 4.0, SBE-beta-CD 54 mg/mL + Ethanol 16 mg/mL, pH exp 4.1)?
**A.** 2490 µg/mL

**Q.** What about the solubility at 24 h ([1]; buffered water with excipients, pH 4, aqueous with cosolvent or surfactant or cyclodextrin, CBS 30 mM pH 4.0, SBE-beta-CD 54 mg/mL + Ethanol 16 mg/mL, pH exp 4.3) of the same molecule?
**A.** 3850 µg/mL

**Q.** What about the solubility at 0 h ([1]; buffered water with excipients, pH 4, aqueous with cosolvent or surfactant or cyclodextrin, CBS 30 mM pH 4.0, SBE-beta-CD 54 mg/mL + PEG 300 56 mg/mL, pH exp 4.2) of the same molecule?
**A.** 2890 µg/mL

**Q.** And the solubility at 24 h ([1]; buffered water with excipients, pH 4, aqueous with cosolvent or surfactant or cyclodextrin, CBS 30 mM pH 4.0, SBE-beta-CD 54 mg/mL + PEG 300 56 mg/mL, pH exp 4.3)?
**A.** 4030 µg/mL

**Q.** What about the solubility at 0 h ([1]; buffered water with excipients, pH 4, aqueous with cosolvent or surfactant or cyclodextrin, CBS 30 mM pH 4.0, SBE-beta-CD 56 mg/mL + PEG 400 22 mg/mL, pH exp 4.2) of the same molecule?
**A.** 2810 µg/mL

**Q.** And the solubility at 24 h ([1]; buffered water with excipients, pH 4, aqueous with cosolvent or surfactant or cyclodextrin, CBS 30 mM pH 4.0, SBE-beta-CD 56 mg/mL + PEG 400 22 mg/mL, pH exp 4.3)?
**A.** 4060 µg/mL

**Q.** And the solubility at 0 h ([1]; buffered water with excipients, pH 4, aqueous with cosolvent or surfactant or cyclodextrin, GBS (gluconate) 30 mM pH 4.0, NaCl 3 mg/mL, SBE-beta-CD 40 mg/mL, pH exp 4.1)?
**A.** 2590 µg/mL

**Q.** And the solubility at 24 h ([1]; buffered water with excipients, pH 4, aqueous with cosolvent or surfactant or cyclodextrin, GBS (gluconate) 30 mM pH 4.0, NaCl 3 mg/mL, SBE-beta-CD 40 mg/mL, pH exp 4.5)?
**A.** 3940 µg/mL

**Q.** And the solubility at 0 h ([1]; buffered water with excipients, pH 4, aqueous with cosolvent or surfactant or cyclodextrin, LBS (lactate) 30 mM pH 4.0, NaCl 3 mg/mL, SBE-beta-CD 40 mg/mL, pH exp 4.1)?
**A.** 2690 µg/mL

**Q.** And the solubility at 24 h ([1]; buffered water with excipients, pH 4, aqueous with cosolvent or surfactant or cyclodextrin, LBS (lactate) 30 mM pH 4.0, NaCl 3 mg/mL, SBE-beta-CD 40 mg/mL, pH exp 4.3)?
**A.** 3980 µg/mL

**Q.** And the solubility at 24 h ([1]; buffered water with excipients, pH 5.5, aqueous with cosolvent or surfactant or cyclodextrin, CBS 30 mM pH 5.5, NaCl 3 mg/mL, SBE-beta-CD 40 mg/mL, pH exp 5.7)?
**A.** 3100 µg/mL

**Q.** What about the solubility at 0 h [1, 4] of the same molecule?
**A.** 2230 µg/mL

**Q.** And the solubility at 24 h [1, 4]?
**A.** 2230 µg/mL

**Q.** And the solubility at 0 h ([1]; buffered water without excipient (saturated solution), pH 4, aqueous buffer, CBS 30 mM pH 4.0, no excipient, pH exp 4.0)?
**A.** 160 µg/mL

**Q.** And the solubility at 24 h ([1]; buffered water without excipient (saturated solution), pH 4, aqueous buffer, CBS 30 mM pH 4.0, no excipient, pH exp 4.2)?
**A.** 120 µg/mL

**Q.** What about the “effect of buffer on solubility with SBE-beta-CD” value ([1]; citrate acid, acetic acid, gluconic acid, lactic acid and aspartic acid buffer) of the same molecule?
**A.** approximately the same

**Q.** And the “solubility (in words)” value ([1]; other solubilizers at concentrations suitable for intravenous use, including hydroxypropyl beta-cyclodextrin)?
**A.** Low solubility

**Q.** What about the “effect of additional excipient on solubility with SBE-beta-CD” value ([1]; saline) of the same molecule?
**A.** very small impact on solubility

**Q.** And the “solubility (in words)” value ([1]; with SBE-beta-CD at concentrations of solubilizer suitable for intravenous use)?
**A.** High solubility

**Q.** What about the “solubility (in words)” value ([1]; with SBE-beta-CD, at higher pH) of the same molecule?
**A.** lower solubility

**Q.** And the “solubility (in words)” value ([1]; with SBE-beta-CD, between pH 4 to pH 5.5)?
**A.** High solubility

**Q.** What about the solubility [2] of the same molecule?
**A.** ≤ 20 µg/mL

**Q.** And the tumor response [3]?
**A.** regressions (and cures)
